Read-outs that look alike come from different tables or passages of the source.
Columns and labels:
DHAK (I) [1] = molecular target: T1, DHAK (I) (Schizosaccharomyces pombe, UniProt O13902); test: Specificity of DHAK (I) for phosphate donor; assay type: biochemical, Schizosaccharomyces pombe IFO 0354; conditions: for Relative activity DHAK (I) (phosphate donor): Adenosine 5'-triphosphate = 100%
T1 construct: DHAK (I) and DHAK (II) obtained from Schizosaccharomyces pombe IFO 0354; made in house; host or cells: Schizosaccharomyces pombe IFO 0354 (natural producer, not recombinant); cell extract, DEAE-Sepharose fraction at 0.12 M KCl, then Blue-Sepharose
T1 sequence (O13902 1-580): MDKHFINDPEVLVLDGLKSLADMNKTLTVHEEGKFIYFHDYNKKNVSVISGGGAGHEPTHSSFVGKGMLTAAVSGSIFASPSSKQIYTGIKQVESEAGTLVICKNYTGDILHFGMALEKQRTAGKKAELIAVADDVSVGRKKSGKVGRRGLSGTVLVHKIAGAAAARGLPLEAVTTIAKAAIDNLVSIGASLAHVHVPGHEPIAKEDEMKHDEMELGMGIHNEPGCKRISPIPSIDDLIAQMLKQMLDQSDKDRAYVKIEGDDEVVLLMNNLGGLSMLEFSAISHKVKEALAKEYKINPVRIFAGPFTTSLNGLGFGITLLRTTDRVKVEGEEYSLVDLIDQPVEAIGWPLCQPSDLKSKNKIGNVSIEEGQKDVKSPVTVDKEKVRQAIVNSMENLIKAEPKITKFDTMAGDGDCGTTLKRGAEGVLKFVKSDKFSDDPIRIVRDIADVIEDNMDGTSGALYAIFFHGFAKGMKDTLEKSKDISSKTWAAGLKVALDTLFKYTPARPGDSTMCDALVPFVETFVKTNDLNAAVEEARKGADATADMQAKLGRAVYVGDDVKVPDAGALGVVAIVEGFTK
Experimental: (§1) The reaction is started by adding enzyme solution, and the decrease of the absorbance at 340 nm is measured spectrophotometrically at 25° C. In the blank assay, DHA is excluded from the reaction mixture. One unit of the enzyme activity is defined as the amount of enzyme which catalyzes the formation of 1 μmol NAD^+ in one minute under the above conditions. The above reaction is represented by the following equations: [drawing 3]

DHAK (II) [2] = molecular target: T2, DHAK (II) (Schizosaccharomyces pombe, UniProt O74215); test: Specificity of DHAK (II) for phosphate donor; assay type: biochemical, Schizosaccharomyces pombe IFO 0354; conditions: for Relative activity DHAK (II) (phosphate donor): Adenosine 5'-triphosphate = 100%
T2 construct: DHAK (I) and DHAK (II) obtained from Schizosaccharomyces pombe IFO 0354; made in house; host or cells: Schizosaccharomyces pombe IFO 0354 (natural producer, not recombinant); cell extract, DEAE-Sepharose fraction at 0.16 M KCl, then Blue-Sepharose
T2 sequence (O74215 1-591): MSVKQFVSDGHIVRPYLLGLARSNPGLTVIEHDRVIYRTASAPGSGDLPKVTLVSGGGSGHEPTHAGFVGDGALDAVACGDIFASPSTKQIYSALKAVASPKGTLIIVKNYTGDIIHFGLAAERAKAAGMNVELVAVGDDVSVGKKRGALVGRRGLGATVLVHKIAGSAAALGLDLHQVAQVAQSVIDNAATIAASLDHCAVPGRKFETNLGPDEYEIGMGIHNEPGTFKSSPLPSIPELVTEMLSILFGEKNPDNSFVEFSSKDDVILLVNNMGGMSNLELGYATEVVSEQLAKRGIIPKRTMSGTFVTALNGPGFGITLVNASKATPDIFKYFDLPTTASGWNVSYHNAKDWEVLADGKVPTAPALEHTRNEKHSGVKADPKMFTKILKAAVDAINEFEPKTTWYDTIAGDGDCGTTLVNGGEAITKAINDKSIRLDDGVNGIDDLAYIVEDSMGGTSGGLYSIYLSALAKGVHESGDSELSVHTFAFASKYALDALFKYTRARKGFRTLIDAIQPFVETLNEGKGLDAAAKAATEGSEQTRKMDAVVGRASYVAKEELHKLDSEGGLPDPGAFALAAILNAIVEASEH
Experimental: as §1

DHAK (II) [3] = test: Substrate specificity of DHAK (II); assay type: biochemical, Schizosaccharomyces pombe IFO 0354; conditions: for Relative activity DHAK (II) (substrate): each substrate 1.0 mM, pH 7.5, 25° C., DHA = 100%; for Action of DHAK (II) on substrate (in words): summary of Table 1
Experimental: (§2) The reaction mixture for measuring the substrate specificity of DHAK consists of 1.0 ml of 0.1M triethanolamine-HCl buffer (pH 7.5), 2.5 mM ATP, 4 mM MgSO4, 0.2 mM NADH, 1.3 mM phosphoenolpyruvate, 6 units of pyruvate kinase, 6 units of lactate dehydrogenase (Boehringer Mannheim GmbH), 0.01 ml of enzyme solution and each substrate (1.0 mM) as shown in Table 1. The reaction is started by adding enzyme solution and measured the decrease in the absorbance at 340 nm at 25° C. The above reaction is represented by the following equations: [drawing 4]

DHAK (I) [4] = molecular target: T1, DHAK (I); test: Substrate specificity of DHAK (I); assay type: biochemical, Schizosaccharomyces pombe IFO 0354
Experimental: as §2

DHAK (II) [5] = molecular target: T2, DHAK (II); test: Specificity of DHAK (II) for divalent metal cations; assay type: biochemical, Schizosaccharomyces pombe IFO 0354; conditions: each divalent metal cation 4 mM; MgSO4 = 100%
Experimental: as §1
(§3) Each divalent metal cation (4 mM) was added to the reaction mixture and the activity of the enzyme was measured.

DHAK (I) [6] = molecular target: T1, DHAK (I); test: Specificity of DHAK (I) for divalent metal cations; assay type: biochemical, Schizosaccharomyces pombe IFO 0354; conditions: each divalent metal cation 4 mM; MgSO4 = 100%
Experimental: as §1, §3

[7] = substrate: O=CC(O)CO; test: Km values of DHAK (II) for substrates and coenzyme; assay type: biochemical, Schizosaccharomyces pombe IFO 0354; conditions: other: pH 7.5, 25° C.
[8] = substrate: O=C(CO)CO; test: Km values of DHAK (II) for substrates and coenzyme; assay type: biochemical, Schizosaccharomyces pombe IFO 0354; conditions: other: pH 7.5, 25° C.
[9] = substrate: Nc1ncnc2c1ncn2[C@@H]1O[C@H](COP(=O)(O)OP(=O)(O)OP(=O)(O)O)[C@@H](O)[C@H]1O; test: Km values of DHAK (II) for substrates and coenzyme; assay type: biochemical, Schizosaccharomyces pombe IFO 0354; conditions: other: pH 7.5, 25° C.
[10] = substrate: O=CC(O)CO; test: Km values of DHAK (I) for substrates and coenzyme; assay type: biochemical, Schizosaccharomyces pombe IFO 0354; conditions: other: pH 7.5, 25° C.
[11] = substrate: Nc1ncnc2c1ncn2[C@@H]1O[C@H](COP(=O)(O)OP(=O)(O)OP(=O)(O)O)[C@@H](O)[C@H]1O; test: Km values of DHAK (I) for substrates and coenzyme; assay type: biochemical, Schizosaccharomyces pombe IFO 0354; conditions: other: pH 7.5, 25° C.
[12] = substrate: O=C(CO)CO; test: purified protein, by the assay type; conditions: other: pH 7.5, 25° C.
[13] = pH 7.5, read-out: Relative activity DHAK (I) (substrate)
[14] = pH 7.5; read-out: Relative activity DHAK (I) (substrate)

## Nc1ncnc2c1ncn2[C@@H]1O[C@H](COP(=O)(O)OP(=O)(O)OP(=O)(O)O)[C@@H](O)[C@H]1O [Adenosine 5'-triphosphate]
DHAK (I) [1]
  Relative activity DHAK (I) (phosphate donor): 100%
DHAK (I) [1]; summary of Table 2
  Phosphate donor ranking for DHAK (I) (in words): best phosphate donor
DHAK (II) [2]
  Relative activity DHAK (II) (phosphate donor): 100%
DHAK (II) [2]; summary of Table 2
  Phosphate donor ranking for DHAK (II) (in words): best phosphate donor

## CC(=O)C(C)O (centres unmarked) [Acetoin]
DHAK (II) [3]
  Relative activity DHAK (II) (substrate): 0%
DHAK (I) [4]; [13]
  activity at 1000 µM: 0%

## OCC(O)CO [Glycerol]
DHAK (II) [3]
  Relative activity DHAK (II) (substrate): 0%
DHAK (I) [4]; [14]
  activity at 1000 µM: 0%

## O=C(O)C(O)CO (racemic) [DL-Glyceric acid]
DHAK (II) [3]
  Relative activity DHAK (II) (substrate): 0%
DHAK (I) [4]; [14]
  activity at 1000 µM: 0%

## [Cl][Ni][Cl] [NiCl2]
DHAK (II) [5]
  Relative activity DHAK (II) (metal cation): 0%
DHAK (I) [6]
  Relative activity DHAK (I) (metal cation): 0%

## Nc1ccn([C@@H]2O[C@H](COP(=O)(O)OP(=O)(O)OP(=O)(O)O)[C@@H](O)[C@H]2O)c(=O)n1 [Cytidine 5'-triphosphate]
DHAK (I) [1]
  Relative activity DHAK (I) (phosphate donor): 0%
DHAK (II) [2]
  Relative activity DHAK (II) (phosphate donor): 0%

## O=C(CO)CO [DHA, dihydroxyacetone]
DHAK (II) [3]
  Relative activity DHAK (II) (substrate): 100%
  Action of DHAK (II) on substrate (in words): act on
DHAK (I) [4]; [14]
  activity at 1000 µM: 100%

## OCCCO [1,3-Propanediol]
DHAK (II) [3]
  Relative activity DHAK (II) (substrate): 0%
DHAK (I) [4]; [13]
  activity at 1000 µM: 0%

## O=CC(O)CO (racemic) [DL-Glyceraldehyde]
DHAK (II) [3]
  Relative activity DHAK (II) (substrate): 12%
  Action of DHAK (II) on substrate (in words): slightly
DHAK (I) [4]; [13]
  activity at 1000 µM: 27%
DHAK (I) [4]; summary of Table 1
  Action of DHAK (I) on substrate (in words): slightly

B1: DHAK (II) (Schizosaccharomyces pombe 972h-) (protein)
chain: MSVKQFVSDGHIVRPYLLGLARSNPGLTVIEHDRVIYRTASAPGSGDLPKVTLVSGGGSGHEPTHAGFVGDGALDAVACGDIFASPSTKQIYSALKAVASPKGTLIIVKNYTGDIIHFGLAAERAKAAGMNVELVAVGDDVSVGKKRGALVGRRGLGATVLVHKIAGSAAALGLDLHQVAQVAQSVIDNAATIAASLDHCAVPGRKFETNLGPDEYEIGMGIHNEPGTFKSSPLPSIPELVTEMLSILFGEKNPDNSFVEFSSKDDVILLVNNMGGMSNLELGYATEVVSEQLAKRGIIPKRTMSGTFVTALNGPGFGITLVNASKATPDIFKYFDLPTTASGWNVSYHNAKDWEVLADGKVPTAPALEHTRNEKHSGVKADPKMFTKILKAAVDAINEFEPKTTWYDTIAGDGDCGTTLVNGGEAITKAINDKSIRLDDGVNGIDDLAYIVEDSMGGTSGGLYSIYLSALAKGVHESGDSELSVHTFAFASKYALDALFKYTRARKGFRTLIDAIQPFVETLNEGKGLDAAAKAATEGSEQTRKMDAVVGRASYVAKEELHKLDSEGGLPDPGAFALAAILNAIVEASEH
notes: DHAK (I) and DHAK (II) obtained from Schizosaccharomyces pombe IFO 0354; made in house; host or cells: Schizosaccharomyces pombe IFO 0354 (natural producer, not recombinant); cell extract, DEAE-Sepharose fraction at 0.16 M KCl, then Blue-Sepharose
[7]
  Km: 32 µM
[8]
  Km: 20 µM
[9]
  Km: 910 µM

B2: DHAK (I) (Schizosaccharomyces pombe 972h-) (protein)
chain: MDKHFINDPEVLVLDGLKSLADMNKTLTVHEEGKFIYFHDYNKKNVSVISGGGAGHEPTHSSFVGKGMLTAAVSGSIFASPSSKQIYTGIKQVESEAGTLVICKNYTGDILHFGMALEKQRTAGKKAELIAVADDVSVGRKKSGKVGRRGLSGTVLVHKIAGAAAARGLPLEAVTTIAKAAIDNLVSIGASLAHVHVPGHEPIAKEDEMKHDEMELGMGIHNEPGCKRISPIPSIDDLIAQMLKQMLDQSDKDRAYVKIEGDDEVVLLMNNLGGLSMLEFSAISHKVKEALAKEYKINPVRIFAGPFTTSLNGLGFGITLLRTTDRVKVEGEEYSLVDLIDQPVEAIGWPLCQPSDLKSKNKIGNVSIEEGQKDVKSPVTVDKEKVRQAIVNSMENLIKAEPKITKFDTMAGDGDCGTTLKRGAEGVLKFVKSDKFSDDPIRIVRDIADVIEDNMDGTSGALYAIFFHGFAKGMKDTLEKSKDISSKTWAAGLKVALDTLFKYTPARPGDSTMCDALVPFVETFVKTNDLNAAVEEARKGADATADMQAKLGRAVYVGDDVKVPDAGALGVVAIVEGFTK
notes: DHAK (I) and DHAK (II) obtained from Schizosaccharomyces pombe IFO 0354; made in house; host or cells: Schizosaccharomyces pombe IFO 0354 (natural producer, not recombinant); cell extract, DEAE-Sepharose fraction at 0.12 M KCl, then Blue-Sepharose
[10]
  Km: 21 µM
[11]
  Km: 220 µM
[12]
  Km: 8.4 µM

Source: US4579822A (priority 1983, dated 1986)
